Values belong to the compound of their own block, whether it stands above or below them.
Experiments:
[1] = biological target: T1, purified human recombinant GK (Homo sapiens, UniProt P35557); assay: Glucokinase activity, coupled enzymatic assay (NADH absorbance at 340 nm); assay type: biochemical; settings: 5 mM glucose; read-out: EC50 values for GK activation at 5 mM Glucose conc
T1 sequence (P35557 1-465): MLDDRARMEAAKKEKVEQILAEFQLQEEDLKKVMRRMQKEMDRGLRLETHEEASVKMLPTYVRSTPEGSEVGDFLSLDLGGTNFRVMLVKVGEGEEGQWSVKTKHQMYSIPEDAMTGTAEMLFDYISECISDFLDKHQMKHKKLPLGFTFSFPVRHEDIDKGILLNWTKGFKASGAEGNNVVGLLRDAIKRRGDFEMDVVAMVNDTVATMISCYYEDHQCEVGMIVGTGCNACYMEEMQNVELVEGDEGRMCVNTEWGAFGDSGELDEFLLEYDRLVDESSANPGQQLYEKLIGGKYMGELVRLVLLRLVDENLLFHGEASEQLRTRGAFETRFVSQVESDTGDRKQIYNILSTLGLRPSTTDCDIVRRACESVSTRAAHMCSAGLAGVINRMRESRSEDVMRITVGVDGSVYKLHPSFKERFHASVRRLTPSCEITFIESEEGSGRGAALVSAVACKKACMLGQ
Excerpt: (§1) Glucokinase (GK) activity, in vitro, has been measured using a coupled enzymatic assay (Ref: Hariharan et al (1997) Diabetes 46: 11-16). GK catalyzes the first step, the conversion of glucose to glucose-6-phosphate (G6P) in the presence of ATP. G6P in turn is converted by glucose-6-phosphate dehydrogenase (G6PD) to 6-phosphogluconate, a process that requires NAD, resulting in NADH formation. Since the GK-catalyzed step is the rate-limiting step of this coupled enzymatic process, the rate of accumulation of 6-phosphogluconate and NADH is directly proportional to the rate of glucose phosphorylation by GK. The rate of the GK-catalyzed reaction can therefore be measured by monitoring the increase in NADH absorbance at 340 nm.
(§2) The assay is carried out according to the protocol outlined in Hariharan et al (1997), Diabetes 46: 11-16. Briefly, the test compounds are incubated in a reaction mix containing 25 mM HEPES (pH 7.2), 10 mM MgCl2, 100 mM KCl, 5 mM ATP, 2 mM DTT, 0.5 mM NAD, 1 U/ml Leuconostoc mesenteroides G6PD, 0.3 U/ml of purified human recombinant GK, and different concentrations of glucose. Enzymatic activity is calculated from the initial reaction velocity, measured from the change in NADH absorbance as a function of time.
Compounds described in formula (I), in concentration ranges from 1.0 nM to 500 μM, are tested in purified human recombinant Glucokinase assay described above.
A compound is considered to be a glucokinase activator if it, in its testable range of concentrations, yields a higher rate of glucose phosphorylation than in its absence.

[2] = animal efficacy models; PSN-GK1 at higher dose; cited from earlier work
[3] = biological target: T1, purified human recombinant GK; assay: Characterization of partial glucokinase activators: dose dependent effect on % ΔS0.5 of glucokinase for glucose; assay type: biochemical; settings: for EC50: sigmoidal fit of % ΔS0.5 vs log concentration, read-out: EC50 (measured against % ΔS0.5); for Classification as partial or full GK activator: compared to Ro-28-1675, partial = S0.5 shift between 20% and 90%, full = 90% or more
Description: The ΔS0.5 is then normalized to a percent scale, where the S0.5 in the vehicle control is set to 0% and 0 mM glucose is set to 100%. […] The EC50 of % change in S0.5 is obtained from the sigmoidal fit of the data.
The change in the S0.5 of glucokinase (ΔS0.5) for glucose in the presence of Examples A11, O15 and J1 is calculated by subtracting the S0.5 at each concentration of each Example from the S0.5 in the vehicle control. The ΔS0.5 is then normalized to a percent scale, where the S0.5 in the vehicle control is set to 0% and 0 mM glucose is set to 100%. The % ΔS0.5 is then plotted against the log of the concentration of each Example.
FIG. 2B illustrates such a derived plot, taking S0.5 data from FIG. 2A.
as §1, §2
Compounds of interest are tested in GK assay to monitor dose dependent effect on Glucokinase activation (in kinetic mode), as described above, at various glucose concentration.

primary rat hepatocytes = assay: Glycogen synthesis in primary rat hepatocytes; assay type: cell-based; settings: 3 hours, over DMSO control
Description: Primary hepatocytes are collected from male Wistar rats, and tested for viability by trypan blue exclusion. […] The medium is then replaced with fresh MEM (serum-free) containing 2 μCi/ml of D-[U^14C]-Glucose along with 10 μM of the compound in a final DMSO concentration of 0.1%. The final glucose concentration is brought to 10 mM by the addition of D-Glucose (MEM already contains 5 mM glucose). The cells are incubated for 3 hours at 37° C. […] After another round of centrifugation, the supernatant is removed, and the pellet containing the precipitated glycogen is dried overnight. De novo synthesized glycogen is estimated in a scintillation counter (MicroBeta Trilux, Perkin Elmer), and expressed as fold increase over DMSO control.
The protocol for isolation of primary rat hepatocytes is based on the method described in “Methods in Enzymology, Vol. III. pp 34-50. Ed. by S. P. Colowick and N. O. Kaplan.
Compounds described in formula (I), in concentration ranges from 1.0 nM to 500 μM, are tested in glycogen synthesis assay described above.

[4] = Table 4, partial glucokinase activators
[5] = Table 3, vehicle S0.5 = 0%, 0 mM glucose = 100%

Compound: 2-(2,4-Difluoro-phenoxy)-2-methyl-N-(1H tetrazol-5-yl)-propionamide [Example A27]
EC50 [1]: 7 µM

Compound: CS(=O)(=O)c1ccc([C@@H](CC2CCCC2)C(=O)Nc2nccs2)cc1 [Ro-28-1675]
Hypoglycemia [2]: cause hypoglycemia in animal efficacy models

Compound: CC(Oc1ccc(F)cc1F)(C(=O)Nc1ccc(C(=O)O)cn1)c1ccc(S(=O)(=O)C2CC2)cc1 (stereo not shown) [Example P5, 6-[2-(4-Cyclopropanesulfonyl-phenyl)-2-(2,4-difluoro-phenoxy)-propionylamino]-nicotinic acid]
Fold increase in glycogen synthesis at 10 μM Compound (primary rat hepatocytes; Table 2, 10 mM glucose): 3.2 fold

Compound: CC(C)(Oc1ccc(F)cc1F)C(=O)Nc1ncc(Cl)s1 [Example A11, N-(5-Chloro-thiazol-2-yl)-2-(2,4-difluoro-phenoxy)-2-methyl-propionamide]
EC50 [1]: 1.8 µM
EC50 ([3]; Table 3): 1.25 µM
Emax [3, 5]: 7%
Classification as partial or full GK activator [3]: partial GK activators

Compound: CC(Oc1ccc(F)cc1F)(C(=O)Nc1ncc(F)s1)c1ccc(S(C)(=O)=O)cc1 (stereo not shown) [Example O9, 2-(2,4-Difluoro-phenoxy)-N-(5-fluoro-thiazol-2-yl)-2-(4-methanesulfonyl-phenyl)-propionamide]
Fold increase in glycogen synthesis at 10 μM Compound (primary rat hepatocytes; Table 5, 10 mM glucose): 2.8 fold

Compound: CC(C)(Oc1ccc2c(c1)OCO2)C(=O)Nc1ncc(Cl)s1 [Example A10, 2-(Benzo[1,3]dioxol-5-yloxy)-N-(5-chloro-thiazol-2-yl)-2-methyl-propionamide]
EC50 [1]: 2.2 µM
Emax [3, 4]: 75%

Compound: CC(C)(Oc1ccc2[nH]ccc2c1)C(=O)Nc1ncc(Cl)s1 [Example A17, N-(5-Chloro-thiazol-2-yl)-2-(1H-indol-5-yloxy)-2-methyl-propionamide]
Fold increase in glycogen synthesis at 10 μM Compound (primary rat hepatocytes; Table 2, 10 mM glucose): 2.9 fold

Compound: CC(C)(Oc1ccc(F)cc1F)C(=O)Nc1ncc(F)s1 [Example A22, 2-(2,4-Difluoro-phenoxy)-N-(5-fluoro-thiazol-2-yl)-2-methyl-propionamide]
Fold increase in glycogen synthesis at 10 μM Compound (primary rat hepatocytes; Table 5, 10 mM glucose): 2.3 fold

Compound: CCC(C)(Oc1ccc(F)cc1F)C(=O)Nc1ncc(Cl)s1 (stereo not shown) [Example G7, N-(5-Chloro-thiazol-2-yl)-2-(2,4-difluoro-phenoxy)-2-methyl-butyramide]
EC50 [1]: 7.1 µM
Emax [3, 4]: 60%

Compound: CC(C)(Oc1ccc2ccccc2c1)C(=O)Nc1nccs1 [Example A5, 2-Methyl-2-(naphthalen-2-yloxy)-N-thiazol-2-yl-propionamide]
melting point: 117 to 118 °C

Second part, led by results:

EC50 [1]: > 14 µM
Compound: CC(Oc1ccc(F)cc1F)(C(=O)Nc1ccc(C(=O)O)cn1)c1ccc(S(C)(=O)=O)cc1 (stereo not shown) [Example P4, 6-[2-(2,4-Difluoro-phenoxy)-2-(4-methanesulfonyl-phenyl)-propionylamio]-nicotinic acid]

Emax [3, 4]: 50%
Compound: CC(C)(Oc1ccc(F)cc1F)C(=O)Nc1nc(CC(=O)Nc2ccc(F)cc2)c(Cl)s1 [Example J4, N-{5-Chloro-4-[(4-fluoro-phenylcarbamoyl)-methyl]-thiazol-2-yl}-2-(2,4-difluoro-phenoxy)-2-methyl-propionamide]

Emax [3, 4]: 40%
Compound: CC(C)(Oc1ccc2c(c1)OCO2)C(=O)Nc1nc(CC(=O)Nc2ccc(F)cc2)cs1 [Example J2, 2-(Benzo[1,3]dioxol-5-yloxy)-N-{4-[(4-fluoro-phenylcarbamoyl)-methyl]-thiazol-2-yl}-2-methyl-propionamide]
Fold increase in glycogen synthesis at 10 μM Compound (primary rat hepatocytes; Table 5, 10 mM glucose): 1.8 fold

EC50 [1]: 4.5 µM
EC50 ([3]; Table 3): 3 µM
Emax [3, 5]: 55%
Classification as partial or full GK activator [3]: partial GK activators
Compound: CC(C)(Oc1ccc(F)cc1F)C(=O)Nc1nc(CC(=O)Nc2ccc(F)cc2)cs1 [Example J1, 2-(2,4-Difluoro-phenoxy)-N-{4-[(4-fluoro-phenylcarbamoyl)-methyl]-thiazol-2-yl}-2-methyl-propionamide]

Emax [3, 4]: 60%
Compound: CC(Oc1ccc(Cl)cc1)(C(=O)Nc1ncc(Cl)s1)c1ccc(S(C)(=O)=O)cc1 (stereo not shown) [Example O18, 2-(4-Chloro-phenoxy)-N-(5-chloro-thiazol-2-yl)-2-(4-methanesulfonyl-phenyl)-propionamide]

melting point: 166 to 168 °C
Compound: CC(C)(Oc1cccc(C(=O)O)c1)C(=O)Nc1nccs1 [Example K1, 3-[1-Methyl-1-(thiazol-2-ylcarbamoyl)-ethoxy]-benzoic acid]

melting point: 89 to 90 °C
Compound: CC(Oc1ccc(F)cc1F)(C(=O)Nc1nccs1)c1ccc(S(C)(=O)=O)cc1 (stereo not shown) [Example O1, 2-(2,4-Difluoro-phenoxy)-2-(4-methanesulfonyl-phenyl)-N-thiazol-2-yl-propionamide]

EC50 [1]: 1.8 µM
EC50 ([3]; Table 3): 1.2 µM
Emax [3, 5]: 55%
Classification as partial or full GK activator [3]: partial GK activators
Compound: CC(Oc1ccc(F)cc1F)(C(=O)Nc1ncc(Cl)s1)c1ccc(S(=O)(=O)C2CC2)cc1 (stereo not shown) [Example O15, N-(5-Chloro-thiazol-2-yl)-2-(4-cyclopropanesulfonyl-phenyl)-2-(2,4-difluoro-phenoxy)-propionamide]

melting point: 67 to 68 °C
Compound: CSc1ccc(OC(C)(C(=O)Nc2ncc(Cl)s2)c2ccc(S(C)(=O)=O)cc2)cc1 (stereo not shown) [Example O4, N-(5-Chloro-thiazol-2-yl)-2-(4-methanesulfonyl-phenyl)-2-(4-methylsulfanyl-phenoxy)-propionamide]

Emax [3, 4]: 75%
Compound: CC(Oc1ccc(F)cc1F)(C(=O)Nc1ncc(Cl)s1)c1ccc(S(C)(=O)=O)cc1 (stereo not shown) [Example O19, N-(5-Chloro-thiazol-2-yl)-2-(2,4-difluorophenoxy)-2-(4-methanesulfonyl-phenyl)-propionamide]

EC50 [1]: 7 µM
melting point: 109 to 111 °C
Compound: CC(Oc1ccc(F)cc1F)(C(=O)Nc1nc(CC(=O)O)c(Cl)s1)c1ccc(S(C)(=O)=O)cc1 (stereo not shown) [Example P1, {5-Chloro-2-[2-(2,4-difluoro-phenoxy)-2-(4-methanesulfonyl-phenyl)-propionylamino]-thiazol-4-yl}-acetic acid]

EC50 [1]: 5.4 µM
Compound: Cc1cnc(NC(=O)C(C)(Oc2ccc(F)cc2F)c2ccc(S(C)(=O)=O)cc2)s1 (stereo not shown) [Example O16, 2-(2,4-Difluoro-phenoxy)-2-(4-methanesulfonyl-phenyl)-N-(5-methyl-thiazol-2-yl)-propionamide]

melting point: 148 to 149 °C
Compound: CCC(C)(Oc1ccc(F)cc1F)C(=O)Nc1nc(CC(=O)O)cs1 (stereo not shown) [Example H1, {2-[2-(2,4-Difluoro-phenoxy)-2-methyl-butyrylamino]-thiazol-4-yl}-acetic acid]

Emax [3, 4]: 50%
Compound: CC(Oc1ccc(F)c(F)c1)(C(=O)Nc1ncc(Cl)s1)c1ccc(S(C)(=O)=O)cc1 (stereo not shown) [Example O20, N-(5-Chloro-thiazol-2-yl)-2-(3,4-difluoro-phenoxy)-2-(4-methanesulfonyl-phenyl)-propionamide]

Source: US8940900B2, “2,2,2-tri-substituted acetamide derivatives as glucokinase activators, their process and pharmaceutical application” (Advinus Therapeutics Private Limited, priority 2007, dated 2015)
